The values below come from PubChem BioAssay (NCI).

Molecules are shown by their SMILES.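 The compound was tested at five concentrations on cells cultured in 96-well plates, with a 48-hour exposure period. The concentration for 50% growth inhibition is given as GI50. TGI: concentration producing complete growth inhibition.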 Bounds are passed on as bounds.

Holding throughout (test): inhibition of tumour cell growth, NCI panel, 48 h
Test [1] deals with OVCAR-5 ovarian.
For test [2], the system named is M14 melanoma.
The subject of test [3] is RXF-631 renal.
The subject of test [4] is LXFL 529 NSCLC.
Test [5] relates to KM20L2 colon.
In test [6] the test system is UACC-257 melanoma.
The test system of test [7] is KM12 colon.
The subject of test [8] is HCT-15 colon.
Test [9] concerns UO-31 renal.
Test [10] has as its system BT-549 breast.
Test [11] relates to NCI/ADR-RES ovarian.

As for `COc1cc2c(cc1OC)[C@@H](C(O)c1ccccc1)NCC2` (stereo not given in full), the TGI in test [1], in test [2], in test [3], in test [4], in test [5] and in [6] was above 100 µM in each case. The TGI in test [7], in [8] and in [9] was above 100 µM throughout.
For `CC[O-].CC[O-].O=Nc1ccc2cc([O-])ccc2c1.O=Nc1ccc2cc([O-])ccc2c1.[Ti+4]`, the GI50 in test [1] is 2.36 µM; in test [5] it was 2.83 µM; in [6], 1.61 µM; in test [7] it was 1.94 µM; in test [9], 1.78 µM. Further, the TGI is 3.84 µM in test [1]; 8.22 µM in test [5]; 3.14 µM in [6]; 4.65 µM in test [7]; 3.63 µM in test [9].
`COc1ccc(/C=C2\CNC/C(=C\c3ccc(OC)cc3)C2=O)cc1`: the TGI in test [1] was above 100 µM; in test [2] it was above 100 µM; in test [4], above 100 µM; in test [5] it was 89.6 µM; in test [6], above 100 µM; in test [7] it was above 100 µM. In addition, the TGI in [8] and in test [9] was above 100 µM throughout.
For the compound `COc1ccc(C=NC23CC4CC(CC(C4)C2)C3)cc1`, the TGI in test [1], in test [2], in test [5], in [6], in test [7] and in test [8] was above 100 µM each time. Moreover, the TGI in test [9] was above 100 µM.
For `CN(C)c1ccc(/C=C2\N=C(c3ccc(N)cc3)OC2=O)cc1`, the TGI in [1], in [2], in test [3], in test [4], in test [5] and in test [6] was above 100 µM throughout. The TGI in [7], in test [8] and in test [9] was above 100 µM each time.
`CCN(CC)C(=S)N/N=C(\C)c1ccccc1O`: the TGI in test [2] was 51.3 µM; in test [3], above 100 µM; in test [4], above 100 µM; in test [5], 59.2 µM; in test [6] it was above 100 µM; in [7], above 100 µM. Besides, the figures for the TGI in test [8] and in [9] were above 100 µM and 61.9 µM, respectively.
For `COc1ccc2nc(NC(=O)C(=O)CC(=O)c3ccc(Cl)cc3)sc2c1`, the TGI in test [2], in [4], in [5], in test [6], in [7] and in test [8] was above 100 µM in each case. The same compound returned a TGI in test [9] above 100 µM.
Regarding `Cc1c(C(=O)CC(=O)C(=O)Nc2cccc(C(F)(F)F)c2)[n+](=O)c2ccccc2n1[O-]`, the TGI was 19.5 µM in [1]; 11.4 µM in test [2]; 11 µM in [3]; 14.1 µM in test [4]; 11.8 µM in test [5]; 6.73 µM in [6]. Besides, the TGI in test [7] amounted to 21.7 µM; in [8], 10.3 µM; in test [9], 30.2 µM.
`CC(C)(C)C(=O)C(c1ccc(-c2cscn2)cc1)c1ccc(-c2cscn2)cc1`: the TGI in test [1], in test [2], in [3], in test [4], in test [5] and in [6] was above 100 µM throughout. Further, the TGI in test [7] was above 100 µM; in test [8], above 100 µM; in [9] it was above 81.9 µM.
For the compound `CC(=O)O[C@@H]1CC(C)C2CC2C2=C(C(O)OC2O)[C@@H]1C(C)CCC=C(C)C` (stereo not given in full), the TGI is 35.1 µM in test [1]; above 100 µM in test [2]; 81.9 µM in test [4]; 39.9 µM in [5]; 62.9 µM in test [6]; 49.5 µM in test [8]. This compound also yielded a TGI in [9] of 47.6 µM.
`Cc1cc2c(c(C#N)c1C)NC(=O)C(CC(=O)O)C2=O` (stereo not given): the TGI in test [1], in [2], in [3], in test [4], in [5] and in [6] was above 100 µM in each case. Further, the TGI in test [7], in [8] and in [9] was above 100 µM in each case.
Regarding `Cc1cccc(C)c1NC(=O)C(=O)CC(=O)CO`, the TGI in [1], in test [2], in test [3], in test [4], in test [5] and in test [6] was above 100 µM throughout. The TGI in [7], in test [8] and in test [9] was above 100 µM each time.
`O=C(c1ccc(NCN2C(=O)CCC2=O)cc1)c1ccc(NCN2C(=O)CCC2=O)cc1`: the TGI in test [1] was above 100 µM; in test [2] it was above 100 µM; in [3], above 100 µM; in [4], above 100 µM; in test [5], above 100 µM; in test [6] it was 84.6 µM. The TGI in test [7], in test [8] and in test [9] was above 100 µM throughout.
With `O=C(O)c1ccc([N+](=O)[O-])c2c(=O)c3ccccc3[nH]c12`, the TGI in test [1], in test [2], in test [3], in test [4], in test [5] and in test [6] was above 100 µM each time. For the same compound, the TGI in test [7], in test [8] and in test [9] was above 100 µM throughout.
As to `C=CCN=C1N=C(CC(=O)OCC)CS1`, the TGI in test [1], in test [2], in test [4], in test [5], in test [6] and in test [7] was above 100 µM each time. Further, the TGI in test [8] and in test [9] was above 100 µM each time.
With `Cc1ccc(C2=Nc3ccccc3NC(=O)C2)cc1`, the TGI in test [1], in test [2], in test [4], in test [5], in test [6] and in test [7] was above 100 µM each time. Also, the TGI in [8] and in test [9] was above 100 µM each time.
With `CNS(=O)(=O)NN(C)S(=O)(=O)c1ccc(Br)cc1`, the TGI in test [2], in test [3], in test [4], in test [5], in test [6] and in test [7] was above 100 µM throughout. In addition, the TGI in [8] and in test [9] was above 100 µM in each case.
For `CC(=O)OC[C@@H]1[C@H]2CC(=O)O[C@H]2C[C@H]1OC(C)=O`, the TGI in test [1], in [2], in test [4], in test [5], in test [6] and in test [7] was above 100 µM in each case. The TGI in test [8] and in [9] was above 100 µM in each case.
For `O=C1NC2(O)c3ccccc3C(=O)C2(O)N1c1ccccc1` (stereo not given), the TGI in test [1], in test [2], in [3], in [4], in test [5] and in [6] was above 100 µM throughout. Also, the TGI in test [7], in [8] and in [9] was above 100 µM throughout.
In the case of `CC(=O)Oc1cccc2c1C(=O)C(Br)(Br)CCC2`, the TGI in [10] amounted to 4.19 µM; in [1], 21.9 µM; in [2] it was 8.67 µM; in test [3], 35.5 µM; in [4] it was 18.7 µM; in test [5], 21.7 µM. For the same compound, the TGI amounted to 25 µM in [6], 23.2 µM in [7], 29.4 µM in [8] and 23.2 µM in [9].
On to `CCOC(=O)NC(=O)c1cn(CCCOC(=O)CCCCCCCCC(=O)OCCCn2cc(C(=O)NC(=O)OCC)c(=O)[nH]c2=O)c(=O)[nH]c1=O`, for which the TGI was 76 µM in test [2]; 79.8 µM in test [4]; above 100 µM in [5]; 48.4 µM in test [6]; 68.8 µM in [8].
As for `O=Cc1[nH]c2ccccc2c1Br`, the TGI in [1] was above 100 µM; in test [2], 46.3 µM; in [3], 44.1 µM; in test [4] it was 60.6 µM; in test [5], 41.5 µM; in test [6], 67.4 µM. The values for the TGI in test [7] and in [9] were 50 µM and 97 µM, respectively.
As to `O=C(N/N=C/c1cc(Br)cc(Br)c1[O-])c1ccccc1O.O=C(N/N=C/c1cc(Br)cc(Br)c1[O-])c1ccccc1O.[Mn+2]`, the TGI in test [1] turned out to be 16.4 µM; in test [2], 3.48 µM; in test [5], 21.3 µM; in test [6], 21 µM; in test [7], 22.9 µM; in [8], 19.9 µM. Further, the TGI in [9] amounted to 24.2 µM.
`N#CC1(c2nc3ccccc3o2)C(=O)C(=O)N(c2ccc(Cl)c(Cl)c2)C(=O)C1=O`: the TGI in test [1], in test [2], in test [4], in test [5], in test [6] and in test [7] was above 100 µM throughout. Moreover, the TGI in [8] and in [9] was above 100 µM throughout.
Regarding `CCOc1cc2ncc(C#N)c(Nc3ccc(F)c(Cl)c3)c2cc1NC(=O)/C=C/CN(C)C`, the GI50 in test [10] is 0.665 µM; in [1] it was 0.344 µM; in [2], 0.312 µM; in test [11], 0.679 µM; in test [6], 1.27 µM; in [7], 1.22 µM. In addition, the GI50 in test [8] was 0.245 µM; in test [9], 0.046 µM. For the same compound, the TGI in [10] was above 7.78 µM; in test [1], above 5.93 µM; in test [2] it was 1.83 µM; in [11] it was above 10 µM; in test [6] it was above 6.03 µM; in [7] it was 3.01 µM. The TGI is 4.07 µM in test [8] and above 3.46 µM in test [9].
Take `CO/N=C1/NC(=O)/C(=C/c2ccc3ncccc3c2)S1`: the GI50 was 9.1 µM in [10]; 6.16 µM in [1]; 9.85 µM in [2]; above 25 µM in [11]; 18 µM in [6]; above 25 µM in test [7]. The values for the GI50 in [8] and in test [9] were 9.13 µM and 4.99 µM, respectively. The TGI in [10], in test [1], in test [2], in test [11], in test [6] and in test [7] was above 25 µM in each case. The figures for the TGI in [8] and in test [9] were above 25 µM and above 22.7 µM, respectively.
